According to paper PMC6959561, “Expression of acyl-CoA-binding protein 5 from Rhodnius prolixus and its inhibition by RNA interference” (PLoS ONE, 2020):

Target: T1, RpACBP-5 (acyl-CoA-binding protein 5) (Rhodnius prolixus, UniProt M4WG04)
T1 construct: recombinant RpACBP-5 expressed in E. coli BL21 (DE3) (GenBank KC417418; 261 bp)
Test: isothermal titration calorimetry (VP-ITC, […]°C, pH […])

T1 sequence (M4WG04 entry or part of it): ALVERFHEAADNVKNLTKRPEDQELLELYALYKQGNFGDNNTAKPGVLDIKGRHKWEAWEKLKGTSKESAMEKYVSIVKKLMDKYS

Kd: 399 ± 266 nM
SMILES: CCCCCCCCCCCC(=O)SCCNC(=O)CCNC(=O)[C@H](O)C(C)(C)COP(=O)(O)OP(=O)(O)OC[C@H]1O[C@@H](n2cnc3c(N)ncnc32)[C@H](O)[C@@H]1OP(=O)(O)O [lauroyl-CoA]
